Measured values reported in patent US20050222200A1, “AMIDE DERIVATIVES AS ION CHANNEL LIGANDS AND PHARMACEUTICAL COMPOSITIONS AND METHODS OF USING THE SAME” (Renovis, Inc., priority 2003, published 2005).

Biological target: T1, VR1 (Homo sapiens, UniProt Q8NER1)
T1 construct: expressed in transfected cells; host or cells: 293 cells ("293 neurons" [sic])
Test: High throughput calcium imaging assay of VR1 antagonists (Fura2, Flex Station, 96 well); further: test concentration or dose not given here
Assay type: cell-based
Conditions: Table 1 activity class

T1 sequence (Q8NER1 whole entry, species assumed): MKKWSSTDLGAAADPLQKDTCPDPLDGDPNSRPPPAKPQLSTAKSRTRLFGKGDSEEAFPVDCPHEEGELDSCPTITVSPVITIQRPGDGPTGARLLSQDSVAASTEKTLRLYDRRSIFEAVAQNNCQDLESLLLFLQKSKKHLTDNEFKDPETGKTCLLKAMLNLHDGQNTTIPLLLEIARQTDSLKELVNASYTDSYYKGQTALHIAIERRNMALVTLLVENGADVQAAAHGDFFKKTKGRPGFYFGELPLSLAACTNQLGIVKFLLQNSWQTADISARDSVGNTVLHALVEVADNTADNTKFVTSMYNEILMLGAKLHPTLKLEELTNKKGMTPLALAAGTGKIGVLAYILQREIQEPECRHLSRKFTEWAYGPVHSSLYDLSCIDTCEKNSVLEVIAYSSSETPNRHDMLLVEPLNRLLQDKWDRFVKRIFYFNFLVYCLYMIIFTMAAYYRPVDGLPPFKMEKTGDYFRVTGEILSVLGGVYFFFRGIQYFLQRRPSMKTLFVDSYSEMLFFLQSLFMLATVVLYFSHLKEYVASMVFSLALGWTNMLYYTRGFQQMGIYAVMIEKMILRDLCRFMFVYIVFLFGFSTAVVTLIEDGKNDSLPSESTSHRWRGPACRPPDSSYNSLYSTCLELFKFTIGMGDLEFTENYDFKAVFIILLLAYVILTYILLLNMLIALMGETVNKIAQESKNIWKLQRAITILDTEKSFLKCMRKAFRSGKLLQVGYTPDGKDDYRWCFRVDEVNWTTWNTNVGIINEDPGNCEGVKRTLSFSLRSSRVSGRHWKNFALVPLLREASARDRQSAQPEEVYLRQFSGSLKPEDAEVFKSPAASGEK

Question: How did the “inhibition of calcium ion influx induced by capsaicin stimulation” value (shortened to “inhibition of calcium ion influx induced”) turn out when CC(C)/C=C/c1ccc(C(=O)Nc2ccncc2)cc1 [Compound 105] was run?
Answer: The value was “++ (compound exhibited 25-50% inhibition of calcium ion influx induced by capsaicin stimulation)”.

Question: For CC(C)(C)/C=C/c1ccc(C(=O)Nc2cc[nH]n2)cc1 [Compound 54], which “inhibition of calcium ion influx induced” value is on record?
Answer: The value was “+ (compound exhibited 0-25% inhibition of calcium ion influx induced by capsaicin stimulation)”.

Question: With CC(C)/C=C/c1ccc(C(=O)Nc2ccc3c(c2)OCO3)cc1 [Compound 169] as the compound, how does the “inhibition of calcium ion influx induced” value read?
Answer: Its value is “+++ (compound exhibited 50-75% inhibition of calcium ion influx induced by capsaicin stimulation)”.

Question: Which “inhibition of calcium ion influx induced” value does the source give for CC(C)/C=C/c1ccc(C(=O)NCC2CCCO2)cc1 (stereo not drawn) [Compound 109] here?
Answer: The value was “++ (compound exhibited 25-50% inhibition of calcium ion influx induced by capsaicin stimulation)”.

Question: How did the “inhibition of calcium ion influx induced” value turn out when CC(C)c1ccc(NC(=O)c2ccc(/C=C/C(C)(C)C)cc2)cc1 [Compound 41] was run?
Answer: The value was “++ (compound exhibited 25-50% inhibition of calcium ion influx induced by capsaicin stimulation)”.

Question: With CC(C)(C)/C=C/c1ccc(C(=O)Nc2ccccc2C#N)cc1 [Compound 30] as the compound, how does the “inhibition of calcium ion influx induced” value read?
Answer: Its value is “++ (compound exhibited 25-50% inhibition of calcium ion influx induced by capsaicin stimulation)”.

Question: With CCC/C=C/c1ccc(C(=O)NCc2cccs2)cc1 [Compound 224] as the compound, how does the “inhibition of calcium ion influx induced” value read?
Answer: Its value is “++ (compound exhibited 25-50% inhibition of calcium ion influx induced by capsaicin stimulation)”.

Question: How did the “inhibition of calcium ion influx induced” value turn out when Cc1cccnc1NC(=O)c1ccc(/C=C/C(C)(C)C)cc1 [Compound 68] was run?
Answer: The value was “+++ (compound exhibited 50-75% inhibition of calcium ion influx induced by capsaicin stimulation)”.

Question: Which “inhibition of calcium ion influx induced” value does the source give for COc1ccccc1NC(=O)c1ccc(/C=C/C(C)(C)C)cc1 [Compound 31] here?
Answer: Its value is “+ (compound exhibited 0-25% inhibition of calcium ion influx induced by capsaicin stimulation)”.

Question: CC(C)(C)/C=C/c1ccc(C(=O)NCc2ccc3c(c2)OCO3)cc1 [Compound 17] was tested. Which “inhibition of calcium ion influx induced” value did it give?
Answer: The value was “+ (compound exhibited 0-25% inhibition of calcium ion influx induced by capsaicin stimulation)”.

Question: How did the “inhibition of calcium ion influx induced” value turn out when COc1ccc(NC(=O)c2ccc(/C=C/C(C)(C)C)cc2)cc1Cl [Compound 37] was run?
Answer: The value was “+ (compound exhibited 0-25% inhibition of calcium ion influx induced by capsaicin stimulation)”.

Question: How did the “inhibition of calcium ion influx induced” value turn out when CC(C)(C)/C=C/c1ccc(C(=O)Nc2ccccc2Cl)cc1 [Compound 33] was run?
Answer: The value was “+ (compound exhibited 0-25% inhibition of calcium ion influx induced by capsaicin stimulation)”.

Question: With CC(C)(C)/C=C/c1ccc(C(=O)NCCN2CCNCC2)cc1 [Compound 60] as the compound, how does the “inhibition of calcium ion influx induced” value read?
Answer: The value was “+ (compound exhibited 0-25% inhibition of calcium ion influx induced by capsaicin stimulation)”.

Question: With COc1ccc(CNC(=O)c2ccc(/C=C/C(C)(C)C)cc2)cc1OC [Compound 35] as the compound, how does the “inhibition of calcium ion influx induced” value read?
Answer: The value was “+ (compound exhibited 0-25% inhibition of calcium ion influx induced by capsaicin stimulation)”.

Question: How did the “inhibition of calcium ion influx induced” value turn out when CC(C)(C)/C=C/c1ccc(C(=O)Nc2cccc(C#N)c2)cc1 [Compound 38] was run?
Answer: The value was “+ (compound exhibited 0-25% inhibition of calcium ion influx induced by capsaicin stimulation)”.

Question: CC(C)(C)/C=C/c1ccc(C(=O)Nc2nccs2)cc1 [Compound 55] was tested. Which “inhibition of calcium ion influx induced” value did it give?
Answer: Its value is “+ (compound exhibited 0-25% inhibition of calcium ion influx induced by capsaicin stimulation)”.

Question: With CC(C)/C=C/c1ccc(C(=O)NCC(C)C)cc1 [Compound 139] as the compound, how does the “inhibition of calcium ion influx induced” value read?
Answer: The value was “+ (compound exhibited 0-25% inhibition of calcium ion influx induced by capsaicin stimulation)”.

Question: CCC/C=C/c1ccc(C(=O)NCCCn2ccnc2)cc1 [Compound 190] was tested. Which “inhibition of calcium ion influx induced” value did it give?
Answer: The value was “+ (compound exhibited 0-25% inhibition of calcium ion influx induced by capsaicin stimulation)”.

Question: CCC/C=C/c1ccc(C(=O)Nc2nccs2)cc1 [Compound 205] was tested. Which “inhibition of calcium ion influx induced” value did it give?
Answer: The value was “+ (compound exhibited 0-25% inhibition of calcium ion influx induced by capsaicin stimulation)”.

Question: How did the “inhibition of calcium ion influx induced” value turn out when CCC/C=C/c1ccc(C(=O)NCc2ccco2)cc1 [Compound 183] was run?
Answer: Its value is “+ (compound exhibited 0-25% inhibition of calcium ion influx induced by capsaicin stimulation)”.

Question: How did the “inhibition of calcium ion influx induced” value turn out when CCC/C=C/c1ccc(C(=O)NC(C)C)cc1 [Compound 179] was run?
Answer: Its value is “+ (compound exhibited 0-25% inhibition of calcium ion influx induced by capsaicin stimulation)”.

Question: CC(C)(C)/C=C/c1ccc(C(=O)NCc2cccnc2)cc1 [Compound 80] was tested. Which “inhibition of calcium ion influx induced” value did it give?
Answer: The value was “+ (compound exhibited 0-25% inhibition of calcium ion influx induced by capsaicin stimulation)”.

Question: CC(C)(C)/C=C/c1ccc(C(=O)Nc2ccc(Cl)nc2)cc1 [Compound 74] was tested. Which “inhibition of calcium ion influx induced” value did it give?
Answer: Its value is “+++ (compound exhibited 50-75% inhibition of calcium ion influx induced by capsaicin stimulation)”.

Question: How did the “inhibition of calcium ion influx induced” value turn out when CCC/C=C/c1ccc(C(=O)Nc2cccnc2)cc1 [Compound 203] was run?
Answer: Its value is “+ (compound exhibited 0-25% inhibition of calcium ion influx induced by capsaicin stimulation)”.

Question: CCC/C=C/c1ccc(C(=O)Nc2cccc(Cl)c2)cc1 [Compound 228] was tested. Which “inhibition of calcium ion influx induced” value did it give?
Answer: The value was “+++ (compound exhibited 50-75% inhibition of calcium ion influx induced by capsaicin stimulation)”.

Question: How did the “inhibition of calcium ion influx induced” value turn out when CCC/C=C/c1ccc(C(=O)NCc2ccc(C(C)C)cc2)cc1 [Compound 185] was run?
Answer: Its value is “+ (compound exhibited 0-25% inhibition of calcium ion influx induced by capsaicin stimulation)”.

Question: With CCC/C=C/c1ccc(C(=O)Nc2ccccc2C#N)cc1 [Compound 225] as the compound, how does the “inhibition of calcium ion influx induced” value read?
Answer: Its value is “+ (compound exhibited 0-25% inhibition of calcium ion influx induced by capsaicin stimulation)”.

Question: For CC(C)(C)/C=C/c1ccc(C(=O)NCCc2ccccc2Cl)cc1 [Compound 11], which “inhibition of calcium ion influx induced” value is on record?
Answer: Its value is “++++ (compound exhibited 75% or greater inhibition of calcium ion influx induced by capsaicin stimulation)”.

Question: CC(C)(C)/C=C/c1ccc(C(=O)NCc2ccccc2)cc1 [Compound 13] was tested. Which “inhibition of calcium ion influx induced” value did it give?
Answer: Its value is “+ (compound exhibited 0-25% inhibition of calcium ion influx induced by capsaicin stimulation)”.

Question: How did the “inhibition of calcium ion influx induced” value turn out when CCC/C=C/c1ccc(C(=O)NCCCC)cc1 [Compound 197] was run?
Answer: Its value is “+ (compound exhibited 0-25% inhibition of calcium ion influx induced by capsaicin stimulation)”.

Question: Which “inhibition of calcium ion influx induced” value does the source give for CCC/C=C/c1ccc(C(=O)NCC2CCCO2)cc1 (stereo not drawn) [Compound 206] here?
Answer: The value was “+ (compound exhibited 0-25% inhibition of calcium ion influx induced by capsaicin stimulation)”.

Question: CCC/C=C/c1ccc(C(=O)NC2CCC(Cc3ccccc3)CC2)cc1 (stereo not drawn) [Compound 207] was tested. Which “inhibition of calcium ion influx induced” value did it give?
Answer: The value was “++ (compound exhibited 25-50% inhibition of calcium ion influx induced by capsaicin stimulation)”.

Question: Which “inhibition of calcium ion influx induced” value does the source give for CC(C)/C=C/c1ccc(C(=O)Nc2ccc3ncccc3c2)cc1 [Compound 171] here?
Answer: The value was “++ (compound exhibited 25-50% inhibition of calcium ion influx induced by capsaicin stimulation)”.

Question: With CN1CCC(NC(=O)c2ccc(/C=C/C(C)(C)C)cc2)CC1 [Compound 65] as the compound, how does the “inhibition of calcium ion influx induced” value read?
Answer: Its value is “+ (compound exhibited 0-25% inhibition of calcium ion influx induced by capsaicin stimulation)”.

Question: For COc1ccc(NC(=O)c2ccc(/C=C/C(C)(C)C)cc2)cc1 [Compound 15], which “inhibition of calcium ion influx induced” value is on record?
Answer: The value was “+ (compound exhibited 0-25% inhibition of calcium ion influx induced by capsaicin stimulation)”.

Question: For CCC/C=C/c1ccc(C(=O)NCc2ccccc2)cc1 [Compound 196], which “inhibition of calcium ion influx induced” value is on record?
Answer: Its value is “+ (compound exhibited 0-25% inhibition of calcium ion influx induced by capsaicin stimulation)”.
